This note sets out measurements from patent publication US20220306695A1, “COMPSTATIN ANALOGUES AND THEIR MEDICAL USES” (priority 2019, published 2022).

By IC50 is commonly meant the midpoint of a concentration-inhibition curve.

Positions of bridges follow the written chain, without caps; N, C: chain ends. Non-standard residues stand in square brackets, D forms with d. Residues, ends and D or L forms follow the SMILES beside them. Trp(1-Me) = Cn1cc(C[C@H](N)C(=O)O)c2ccccc21; 1Nal = N[C@@H](Cc1cccc2ccccc12)C(=O)O; 2Nal = N[C@@H](Cc1ccc2ccccc2c1)C(=O)O; Sar = CNCC(=O)O A value given as a limit tells only on which side of the number the result lay.

Data set [1] deals with classical complement pathway. Description: In vitro haemolysis assay (inhibition of classical complement pathway). The class given is cell-based, human. The settings on record: Table 3; human serum, sensitized sheep red blood cells; read-out: IC50[nM], in vitro analysis of inhibition of hemolysis. The method in brief:
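Serially diluted compound (9 points) was preincubated 15 min at room temperature with diluted human serum, titrated per batch to give 70-90% maximal haemolysis, in Tris/casein buffer pH 7.4 with Mg2+/Ca2+. Antibody-sensitized sheep erythrocytes were then added for 30 min at 37° C, and the reaction was stopped with EDTA. Haemolysis was read at A405, with IC50 from 4PL fit.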

Data set [2] is described as follows: Solubility test at 10 mg/mL (visual inspection and light scattering). The class given is physicochemical. The settings on record: for Solubility, Condition 1 Acetate pH 4: 10 mg/mL compound in 100 mM acetate pH 4; for Solubility, Condition 2 Acetate pH 5: 10 mg/mL compound in 100 mM acetate pH 5; for Solubility, Condition 3 Phosphate pH 6: 10 mg/mL compound in 100 mM phosphate pH 6; for Solubility, Condition 4 Phosphate pH 7: 10 mg/mL compound in 100 mM phosphate pH 7; for Solubility, Condition 5 Phosphate pH 7.5: 10 mg/mL compound in 100 mM phosphate pH 7.5.

For `CC[C@H](C)[C@@H]1NC(=O)[C@@H](NC(=O)[C@H](Cc2ccccc2)NC(C)=O)CSSC[C@@H](C(=O)N[C@H](C(=O)NCC(=O)N[C@@H](C)C(=O)N[C@@H](CCC(=O)O)C(=O)N[C@@H](CO)C(N)=O)[C@@H](C)O)NC(=O)[C@H](CCCNC(=N)N)NC(=O)[C@H](Cc2c[nH]cn2)NC(=O)[C@H](CCC(=O)O)NC(=O)CNC(=O)[C@H](Cc2c[nH]c3ccccc23)NC(=O)[C@H](CC(=O)O)NC(=O)[C@H](CCC(N)=O)NC(=O)[C@H](Cc2cccc3ccccc23)NC1=O` [Compound 63] (Ac-FCI[1Nal]QDWGEHRCTGAES-NH2; disulfide 2-12), in data set [1], the IC50 was under 100 nM. Also, in data set [2], the “Solubility, Condition 1 Acetate pH 4” value is recorded as “− (denotes lack of solubility at the given condition, as UV absorbance at 340 nm exceeds 0.1 AU and/or it is visibly turbid or contains particles.)”; the “Solubility, Condition 2 Acetate pH 5” value was “− (denotes lack of solubility at the given condition, as UV absorbance at 340 nm exceeds 0.1 AU and/or it is visibly turbid or contains particles.)”; the “Solubility, Condition 3 Phosphate pH 6” value was “+ (denotes solubility at the given condition, as determined by UV absorbance being less than 0.1 AU at 340 nm and the sample being clear when manually inspected.)”; the “Solubility, Condition 4 Phosphate pH 7” value was “+ (denotes solubility at the given condition, as determined by UV absorbance being less than 0.1 AU at 340 nm and the sample being clear when manually inspected.)”. In addition, in data set [2], the “Solubility, Condition 5 Phosphate pH 7.5” value is “+ (denotes solubility at the given condition, as determined by UV absorbance being less than 0.1 AU at 340 nm and the sample being clear when manually inspected.)”.
As for `CC[C@H](C)[C@@H]1NC(=O)[C@@H](NC(=O)[C@H](Cc2ccccc2)NC(C)=O)CSSC[C@@H](C(=O)N[C@H](C(=O)NCC(=O)N[C@@H](C)C(=O)N[C@@H](CCC(=O)O)C(=O)N[C@@H](CO)C(N)=O)[C@@H](C)O)NC(=O)[C@H](CCCNC(=N)N)NC(=O)[C@H](Cc2c[nH]cn2)NC(=O)[C@H](CCC(=O)O)NC(=O)CN(C)C(=O)[C@H](Cc2c[nH]c3ccccc23)NC(=O)[C@H](CC(=O)O)NC(=O)[C@H](CCC(N)=O)NC(=O)[C@H](Cc2cn(C)c3ccccc23)NC1=O` [Compound 72, Ac-FC(1)I[1-Me-Trp]QDW[Sar]EHRC(1)TGAES-NH2] (Ac-FCI[Trp(1-Me)]QDW[Sar]EHRCTGAES-NH2; disulfide 2-12), the IC50 in data set [1] was under 100 nM. Moreover, in data set [2], the “Solubility, Condition 1 Acetate pH 4” value was “− (denotes lack of solubility at the given condition, as UV absorbance at 340 nm exceeds 0.1 AU and/or it is visibly turbid or contains particles.)”; the “Solubility, Condition 2 Acetate pH 5” value is listed as “− (denotes lack of solubility at the given condition, as UV absorbance at 340 nm exceeds 0.1 AU and/or it is visibly turbid or contains particles.)”; the “Solubility, Condition 3 Phosphate pH 6” value is “+ (denotes solubility at the given condition, as determined by UV absorbance being less than 0.1 AU at 340 nm and the sample being clear when manually inspected.)”; the “Solubility, Condition 4 Phosphate pH 7” value is “+ (denotes solubility at the given condition, as determined by UV absorbance being less than 0.1 AU at 340 nm and the sample being clear when manually inspected.)”. The “Solubility, Condition 5 Phosphate pH 7.5” value in data set [2] was “+ (denotes solubility at the given condition, as determined by UV absorbance being less than 0.1 AU at 340 nm and the sample being clear when manually inspected.)”.
Consider `CC[C@H](C)[C@H](NC(=O)[C@H](C)NC(=O)[C@H](CO)NC(=O)CNC(=O)[C@H](CCC(=O)O)NC(C)=O)C(=O)N[C@H]1CSSC[C@@H](C(=O)N[C@H](C(=O)N[C@@H](CCC(=O)O)C(N)=O)[C@@H](C)O)NC(=O)[C@H](CCCNC(=N)N)NC(=O)[C@H](Cc2c[nH]cn2)NC(=O)[C@H](CCC(=O)O)NC(=O)CNC(=O)[C@H](Cc2c[nH]c3ccccc23)NC(=O)[C@H](CC(=O)O)NC(=O)[C@H](CCC(N)=O)NC(=O)[C@H](Cc2c[nH]c3ccccc23)NC(=O)[C@H]([C@@H](C)CC)NC1=O` [Compound 55] (Ac-EGSAICIWQDWGEHRCTE-NH2; disulfide 6-16), for which the half-maximal inhibitory concentration (IC50) in data set [1] is under 250 nM. Further, in data set [2], the “Solubility, Condition 1 Acetate pH 4” value was “− (denotes lack of solubility at the given condition, as UV absorbance at 340 nm exceeds 0.1 AU and/or it is visibly turbid or contains particles.)”; the “Solubility, Condition 2 Acetate pH 5” value is “− (denotes lack of solubility at the given condition, as UV absorbance at 340 nm exceeds 0.1 AU and/or it is visibly turbid or contains particles.)”; the “Solubility, Condition 3 Phosphate pH 6” value is “+ (denotes solubility at the given condition, as determined by UV absorbance being less than 0.1 AU at 340 nm and the sample being clear when manually inspected.)”; the “Solubility, Condition 4 Phosphate pH 7” value was “+ (denotes solubility at the given condition, as determined by UV absorbance being less than 0.1 AU at 340 nm and the sample being clear when manually inspected.)”. Besides, the “Solubility, Condition 5 Phosphate pH 7.5” value in data set [2] is “+ (denotes solubility at the given condition, as determined by UV absorbance being less than 0.1 AU at 340 nm and the sample being clear when manually inspected.)”.
On to `CC[C@H](C)[C@@H]1NC(=O)[C@@H](NC(=O)[C@H](Cc2ccc(O)cc2)NC(C)=O)CSSC[C@@H](C(=O)N[C@H](C(=O)NCC(=O)N[C@@H](C)C(=O)N[C@@H](CCC(=O)O)C(=O)N[C@@H](CO)C(N)=O)[C@@H](C)O)NC(=O)[C@H](CCCNC(=N)N)NC(=O)[C@H](Cc2c[nH]cn2)NC(=O)[C@H](CCC(=O)O)NC(=O)CNC(=O)[C@H](Cc2c[nH]c3ccccc23)NC(=O)[C@H](CC(=O)O)NC(=O)[C@H](CCC(N)=O)NC(=O)[C@H](Cc2ccc3ccccc3c2)NC1=O` [Compound 65] (Ac-YCI[2Nal]QDWGEHRCTGAES-NH2; disulfide 2-12), for which the IC50 in data set [1] was under 100 nM. In addition, in data set [2], the “Solubility, Condition 1 Acetate pH 4” value is given as “− (denotes lack of solubility at the given condition, as UV absorbance at 340 nm exceeds 0.1 AU and/or it is visibly turbid or contains particles.)”; the “Solubility, Condition 2 Acetate pH 5” value is recorded as “− (denotes lack of solubility at the given condition, as UV absorbance at 340 nm exceeds 0.1 AU and/or it is visibly turbid or contains particles.)”; the “Solubility, Condition 3 Phosphate pH 6” value was “+ (denotes solubility at the given condition, as determined by UV absorbance being less than 0.1 AU at 340 nm and the sample being clear when manually inspected.)”; the “Solubility, Condition 4 Phosphate pH 7” value was “+ (denotes solubility at the given condition, as determined by UV absorbance being less than 0.1 AU at 340 nm and the sample being clear when manually inspected.)”. Also, the “Solubility, Condition 5 Phosphate pH 7.5” value in data set [2] is “+ (denotes solubility at the given condition, as determined by UV absorbance being less than 0.1 AU at 340 nm and the sample being clear when manually inspected.)”.
Consider `CC[C@H](C)[C@@H]1NC(=O)[C@@H](NC(=O)[C@@H](NC(=O)[C@H](CCC(=O)O)NC(C)=O)[C@@H](C)CC)CSSC[C@@H](C(=O)N[C@H](C(=O)N[C@@H](CCC(=O)O)C(N)=O)[C@@H](C)O)NC(=O)[C@H](CCCNC(=N)N)NC(=O)[C@H](Cc2c[nH]cn2)NC(=O)[C@H](CCC(=O)O)NC(=O)CNC(=O)[C@H](Cc2c[nH]c3ccccc23)NC(=O)[C@H](CC(=O)O)NC(=O)[C@H](CCC(N)=O)NC(=O)[C@H](Cc2c[nH]c3ccccc23)NC1=O` [Compound 33] (Ac-EICIWQDWGEHRCTE-NH2; disulfide 3-13), for which the IC50 in data set [1] was under 100 nM. Besides, in data set [2], the “Solubility, Condition 1 Acetate pH 4” value is listed as “− (denotes lack of solubility at the given condition, as UV absorbance at 340 nm exceeds 0.1 AU and/or it is visibly turbid or contains particles.)”; the “Solubility, Condition 2 Acetate pH 5” value is given as “− (denotes lack of solubility at the given condition, as UV absorbance at 340 nm exceeds 0.1 AU and/or it is visibly turbid or contains particles.)”; the “Solubility, Condition 3 Phosphate pH 6” value was “+ (denotes solubility at the given condition, as determined by UV absorbance being less than 0.1 AU at 340 nm and the sample being clear when manually inspected.)”; the “Solubility, Condition 4 Phosphate pH 7” value was “+ (denotes solubility at the given condition, as determined by UV absorbance being less than 0.1 AU at 340 nm and the sample being clear when manually inspected.)”. Moreover, in data set [2], the “Solubility, Condition 5 Phosphate pH 7.5” value was “+ (denotes solubility at the given condition, as determined by UV absorbance being less than 0.1 AU at 340 nm and the sample being clear when manually inspected.)”.
Regarding `CC[C@H](C)[C@@H]1NC(=O)[C@@H](NC(=O)[C@H](Cc2ccc(O)cc2)NC(C)=O)CSSC[C@@H](C(=O)N[C@H](C(=O)NCC(=O)N[C@@H](C)C(=O)N[C@@H](CCC(=O)O)C(=O)N[C@@H](CO)C(N)=O)[C@@H](C)O)NC(=O)[C@H](CCCNC(=N)N)NC(=O)[C@H](Cc2c[nH]cn2)NC(=O)[C@H](CCC(=O)O)NC(=O)CNC(=O)[C@H](Cc2c[nH]c3ccccc23)NC(=O)[C@H](CC(=O)O)NC(=O)[C@H](CCC(N)=O)NC(=O)[C@H](Cc2c[nH]c3ccccc23)NC1=O` [Compound 66] (Ac-YCIWQDWGEHRCTGAES-NH2; disulfide 2-12), the 50% inhibitory concentration (IC50) in data set [1] was under 100 nM. Also, in data set [2], the “Solubility, Condition 1 Acetate pH 4” value is recorded as “− (denotes lack of solubility at the given condition, as UV absorbance at 340 nm exceeds 0.1 AU and/or it is visibly turbid or contains particles.)”; the “Solubility, Condition 2 Acetate pH 5” value is on record as “− (denotes lack of solubility at the given condition, as UV absorbance at 340 nm exceeds 0.1 AU and/or it is visibly turbid or contains particles.)”; the “Solubility, Condition 3 Phosphate pH 6” value is “+ (denotes solubility at the given condition, as determined by UV absorbance being less than 0.1 AU at 340 nm and the sample being clear when manually inspected.)”; the “Solubility, Condition 4 Phosphate pH 7” value was “+ (denotes solubility at the given condition, as determined by UV absorbance being less than 0.1 AU at 340 nm and the sample being clear when manually inspected.)”. Also, the “Solubility, Condition 5 Phosphate pH 7.5” value in data set [2] is “+ (denotes solubility at the given condition, as determined by UV absorbance being less than 0.1 AU at 340 nm and the sample being clear when manually inspected.)”.
